Patent US20110319416A1, “Subunit Selective NMDA Receptor Antagonists For The Treatment Of Neurological Conditions” (EMORY UNIVERSITY, priority 2009, published 2011)
Read-outs that look alike come from different tables or passages of the source.

Assays:
Assay type in all cases: cell-based
NR1/NR2D = NR1/NR2D (Rattus norvegicus, UniProt P35439+Q62645); assay: Two electrode voltage clamp, Xenopus oocytes expressing recombinant NR1/NR2D; conditions: for remaining activity at 100 µM: read-out: 2D percent effect at the maximum tested concentration
Chain of NR1/NR2D (Q62645 28-1323, other chains not shown): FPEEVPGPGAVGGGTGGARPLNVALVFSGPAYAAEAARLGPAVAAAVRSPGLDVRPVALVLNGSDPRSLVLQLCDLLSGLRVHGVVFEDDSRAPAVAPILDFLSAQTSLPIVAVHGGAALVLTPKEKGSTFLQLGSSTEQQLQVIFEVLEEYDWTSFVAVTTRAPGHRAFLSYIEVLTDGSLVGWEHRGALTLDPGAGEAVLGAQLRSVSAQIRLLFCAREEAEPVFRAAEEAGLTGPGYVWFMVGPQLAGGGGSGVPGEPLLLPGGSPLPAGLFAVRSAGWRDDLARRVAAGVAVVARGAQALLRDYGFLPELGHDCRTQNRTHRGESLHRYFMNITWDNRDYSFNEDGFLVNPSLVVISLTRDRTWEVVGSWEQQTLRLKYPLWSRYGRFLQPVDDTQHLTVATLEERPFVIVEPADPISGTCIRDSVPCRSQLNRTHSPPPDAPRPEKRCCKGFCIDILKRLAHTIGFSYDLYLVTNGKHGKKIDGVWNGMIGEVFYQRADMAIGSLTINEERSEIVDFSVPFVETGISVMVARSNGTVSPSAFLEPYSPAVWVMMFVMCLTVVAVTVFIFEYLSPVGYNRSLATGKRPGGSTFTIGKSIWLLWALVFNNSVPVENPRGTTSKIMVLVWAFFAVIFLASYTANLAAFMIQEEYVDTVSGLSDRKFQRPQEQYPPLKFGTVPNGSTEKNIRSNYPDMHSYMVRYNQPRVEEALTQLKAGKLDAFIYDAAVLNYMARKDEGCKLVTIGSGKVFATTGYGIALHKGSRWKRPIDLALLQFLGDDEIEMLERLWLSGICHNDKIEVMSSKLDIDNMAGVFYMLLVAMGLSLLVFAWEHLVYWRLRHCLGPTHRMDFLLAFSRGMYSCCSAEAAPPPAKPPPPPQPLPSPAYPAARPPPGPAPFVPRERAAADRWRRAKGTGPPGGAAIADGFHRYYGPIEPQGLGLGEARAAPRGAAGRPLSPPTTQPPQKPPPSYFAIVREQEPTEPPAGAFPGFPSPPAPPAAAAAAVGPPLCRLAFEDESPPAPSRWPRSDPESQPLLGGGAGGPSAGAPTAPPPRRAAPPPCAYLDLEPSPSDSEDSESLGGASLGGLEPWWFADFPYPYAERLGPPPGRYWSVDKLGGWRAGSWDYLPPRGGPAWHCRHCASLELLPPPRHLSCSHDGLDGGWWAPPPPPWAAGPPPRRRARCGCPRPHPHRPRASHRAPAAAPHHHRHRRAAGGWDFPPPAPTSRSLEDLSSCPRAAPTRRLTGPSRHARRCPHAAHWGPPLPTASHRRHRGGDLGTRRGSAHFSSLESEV
Experimental: (§1) Quality of synthesized cRNA was assessed by gel electrophoresis, and quantity was estimated by spectroscopy and gel electrophoresis. Stage V and VI oocytes were surgically removed from the ovaries of large, well-fed and healthy Xenopus laevis anesthetized with 3-amino-benzoic acid ethyl ester (3 gm/l) as previously described. Clusters of isolated oocytes were incubated with 292 U/ml Worthington (Freehold, N.J.) type IV collagenase or 1.3 mg/ml collagenase (Life Technologies, Gaithersburg, MD; 17018-029) for 2 hr in Ca^2+-free solution comprised of (in mM) 115 NaCl, 2.5 KCl, and 10 HEPES, pH 7.5, with slow agitation to remove the follicular cell layer. Oocytes were then washed extensively in the same solution supplemented with 1.8 mM CaCl2 and maintained in Barth's solution comprised of (in mM): 88 NaCl, 1 KCl, 2.4 NaHCO3, 10 HEPES, 0.82 MgSO4, 0.33 Ca(NO3)2, and 0.91 CaCl2 and supplemented with 100 μg/m1 gentamycin, 10 μg/ml streptomycin, and 10 μg/ml penicillin. Oocytes were manually defolliculated and injected within 24 hrs of isolation with 3-5 ng of NR1 subunit cRNA and 7-10 ng of NR2 cRNA subunit in a 50 nl volume, or 5-10 ng of AMPA or kainate receptor cRNAs in a 50 nl volume, and incubated in Barth's solution at 18° C. for 1-7 d. Glass injection pipettes had tip sizes ranging from 10-20 microns, and were backfilled with mineral oil.
(§2) Two electrode voltage-clamp recordings were made 2-7 days post-injection as previously described. Oocytes were placed in a dual-track plexi-glass recording chamber with a single perfusion line that splits in a Y-configuration to perfuse two oocytes. Dual recordings were made at room temperature (23° C.) using two Warner OC725B two-electrode voltage clamp amplifiers, arranged as recommended by the manufacturer. Glass microelectrodes (1-10 Megaohms) were filled with 300 mM KCl (voltage electrode) or 3 M KCl (current electrode). The bath clamps communicated across silver chloride wires placed into each side of the recording chamber, both of which were assumed to be at a reference potential of 0 mV. Oocytes were perfused with a solution comprised of (in mM) 90 NaCl, 1 KCl, 10 HEPES, and 0.5 BaCl2; pH was adjusted by addition of 1-3 M NaOH of HC1 to 7.4. Oocytes were recorded under voltage clamp at −40 mV. […] In some experiments, 10 μM EDTA was obtained by adding a 1:1000 dilution of 10 mM EDTA, in order to chelate contaminant divalent ions such as Zn^2+. […] Concentration effect curves consisting of 4 to 8 concentrations were obtained in this manner. The baseline leak current at −40 mV was measured before and after recording, and the full recording linearly corrected for any change in leak current. […] Each experiment consisted of recordings from 3 to 10 oocytes obtained from a single frog. Results from multiple experiments were pooled, and the average percent responses at antagonist concentrations were fitted by the equation,
(§3) Percent Response=(100−minimum)/(1+([conc]/IC50)nH)+minimum

NR1/NR2C = NR1/NR2C (Rattus norvegicus, UniProt P35439+Q00961); assay: Two electrode voltage clamp, Xenopus oocytes expressing recombinant NR1/NR2C; conditions: for remaining activity at 100 µM: read-out: 2C percent effect at the maximum tested concentration
Experimental: as §1, §2, §3

NR1/NR2A = NR1/NR2A (Rattus norvegicus, UniProt P35439+Q00959); assay: Two electrode voltage clamp, Xenopus oocytes expressing recombinant NR1/NR2A; conditions: for remaining activity at 100 µM: read-out: 2A percent effect at the maximum tested concentration; for IC50: logistic fit, minimum forced to 0, read-out: 2A IC50
Chain of NR1/NR2A (Q00959 23-1464, other chains not shown): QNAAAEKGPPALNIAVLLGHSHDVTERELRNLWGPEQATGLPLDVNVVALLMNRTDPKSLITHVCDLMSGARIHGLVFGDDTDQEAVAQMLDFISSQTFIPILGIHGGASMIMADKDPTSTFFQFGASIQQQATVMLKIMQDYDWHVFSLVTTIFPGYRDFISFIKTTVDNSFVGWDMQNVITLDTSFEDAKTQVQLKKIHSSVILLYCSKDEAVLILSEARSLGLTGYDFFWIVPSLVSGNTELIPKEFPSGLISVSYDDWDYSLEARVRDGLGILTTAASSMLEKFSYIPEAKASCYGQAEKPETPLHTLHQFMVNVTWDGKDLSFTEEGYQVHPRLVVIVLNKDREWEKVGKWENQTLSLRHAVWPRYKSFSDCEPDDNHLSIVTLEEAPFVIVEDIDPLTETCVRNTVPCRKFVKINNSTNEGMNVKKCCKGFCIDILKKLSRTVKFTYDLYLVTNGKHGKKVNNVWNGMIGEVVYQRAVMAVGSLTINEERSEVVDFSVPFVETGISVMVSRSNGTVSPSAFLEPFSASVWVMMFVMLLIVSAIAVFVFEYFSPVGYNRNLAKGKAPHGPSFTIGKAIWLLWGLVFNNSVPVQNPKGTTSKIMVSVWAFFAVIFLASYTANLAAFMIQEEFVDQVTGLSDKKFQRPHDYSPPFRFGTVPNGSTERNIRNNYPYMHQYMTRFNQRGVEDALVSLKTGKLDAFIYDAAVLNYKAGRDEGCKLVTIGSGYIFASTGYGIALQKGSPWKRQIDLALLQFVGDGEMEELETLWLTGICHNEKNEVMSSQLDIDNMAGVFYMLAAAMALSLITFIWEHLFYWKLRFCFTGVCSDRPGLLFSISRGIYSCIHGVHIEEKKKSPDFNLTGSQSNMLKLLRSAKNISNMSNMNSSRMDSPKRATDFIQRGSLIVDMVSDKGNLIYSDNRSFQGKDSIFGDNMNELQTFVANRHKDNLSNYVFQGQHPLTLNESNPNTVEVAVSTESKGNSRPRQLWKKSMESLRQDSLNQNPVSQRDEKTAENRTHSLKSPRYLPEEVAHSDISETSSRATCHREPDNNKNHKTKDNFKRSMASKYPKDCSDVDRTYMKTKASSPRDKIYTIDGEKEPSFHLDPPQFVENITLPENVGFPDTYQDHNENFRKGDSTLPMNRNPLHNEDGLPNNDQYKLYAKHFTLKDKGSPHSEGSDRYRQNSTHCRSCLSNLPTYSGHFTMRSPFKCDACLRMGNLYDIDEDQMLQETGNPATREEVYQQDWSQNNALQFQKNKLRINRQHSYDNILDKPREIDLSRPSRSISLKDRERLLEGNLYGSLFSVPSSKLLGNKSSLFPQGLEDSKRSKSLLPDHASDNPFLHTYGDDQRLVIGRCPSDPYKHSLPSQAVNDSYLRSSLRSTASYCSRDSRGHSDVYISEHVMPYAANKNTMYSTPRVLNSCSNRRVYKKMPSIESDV
Experimental: as §1, §2, §3

NR1/NR2B = NR1/NR2B (Rattus norvegicus, UniProt P35439+Q00960); assay: Two electrode voltage clamp, Xenopus oocytes expressing recombinant NR1/NR2B; conditions: for remaining activity at 100 µM: read-out: 2B percent effect at the maximum tested concentration
Chain of NR1/NR2B (Q00960 27-1482, other chains not shown): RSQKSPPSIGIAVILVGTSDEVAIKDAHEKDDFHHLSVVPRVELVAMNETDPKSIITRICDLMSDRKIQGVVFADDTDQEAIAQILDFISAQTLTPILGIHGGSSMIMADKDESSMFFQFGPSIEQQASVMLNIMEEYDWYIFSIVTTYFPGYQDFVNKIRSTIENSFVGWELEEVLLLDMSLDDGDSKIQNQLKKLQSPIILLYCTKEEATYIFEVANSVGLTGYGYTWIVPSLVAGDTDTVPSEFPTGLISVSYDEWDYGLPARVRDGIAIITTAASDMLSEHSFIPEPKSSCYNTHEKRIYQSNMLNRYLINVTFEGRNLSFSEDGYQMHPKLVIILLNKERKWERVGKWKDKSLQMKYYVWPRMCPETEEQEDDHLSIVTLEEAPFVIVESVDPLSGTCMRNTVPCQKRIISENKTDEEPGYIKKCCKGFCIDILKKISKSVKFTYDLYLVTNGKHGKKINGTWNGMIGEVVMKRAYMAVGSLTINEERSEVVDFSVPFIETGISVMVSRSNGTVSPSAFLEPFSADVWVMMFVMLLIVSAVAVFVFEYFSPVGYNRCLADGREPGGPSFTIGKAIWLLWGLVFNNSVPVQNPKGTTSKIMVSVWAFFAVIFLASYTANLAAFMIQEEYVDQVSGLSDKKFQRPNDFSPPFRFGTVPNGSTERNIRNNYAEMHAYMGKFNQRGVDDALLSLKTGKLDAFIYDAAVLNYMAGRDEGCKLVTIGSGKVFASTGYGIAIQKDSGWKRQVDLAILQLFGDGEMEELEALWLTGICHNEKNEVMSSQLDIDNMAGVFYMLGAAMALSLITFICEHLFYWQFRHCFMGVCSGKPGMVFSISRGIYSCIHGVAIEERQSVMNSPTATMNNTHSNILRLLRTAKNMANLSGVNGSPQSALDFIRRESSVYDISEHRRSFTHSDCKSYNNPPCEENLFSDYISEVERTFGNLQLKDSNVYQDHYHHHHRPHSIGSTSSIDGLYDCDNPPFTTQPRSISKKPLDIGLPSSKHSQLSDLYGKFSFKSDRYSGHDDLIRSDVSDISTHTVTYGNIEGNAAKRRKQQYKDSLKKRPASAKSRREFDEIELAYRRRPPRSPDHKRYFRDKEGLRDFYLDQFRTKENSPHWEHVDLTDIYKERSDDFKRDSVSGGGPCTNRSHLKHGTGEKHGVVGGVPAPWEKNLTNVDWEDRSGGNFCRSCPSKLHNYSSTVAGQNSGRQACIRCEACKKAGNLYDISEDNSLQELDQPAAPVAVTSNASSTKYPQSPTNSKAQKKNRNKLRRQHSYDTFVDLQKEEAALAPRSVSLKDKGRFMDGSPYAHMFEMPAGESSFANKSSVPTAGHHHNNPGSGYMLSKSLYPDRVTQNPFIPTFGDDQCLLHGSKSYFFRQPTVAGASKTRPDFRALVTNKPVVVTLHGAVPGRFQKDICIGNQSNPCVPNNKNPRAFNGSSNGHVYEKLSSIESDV
Experimental: as §1, §2, §3

[1] = logistic fit, minimum forced to 0, read-out: 2D IC50
[2] = logistic fit, minimum forced to 0, read-out: 2C IC50
[3] = logistic fit, minimum forced to 0, read-out: 2B IC50

With CCN(CC)C(=O)Oc1ccccc1C(=O)Nc1cccc2ccccc12 [1063-25] the remaining activity at 100 µM (NR1/NR2D) was 91%, the remaining activity at 100 µM (NR1/NR2C) was 83% and the remaining activity at 100 µM (NR1/NR2A; at 100 μM) was 88%. The remaining activity at 100 µM (NR1/NR2B; at 100 μM) was 88%.
For CCN(CC)C(=O)Oc1ccc(C(=O)Nc2cccc3[nH]ccc23)cc1 [1063-26], the IC50 (NR1/NR2D) was 6 µM, the IC50 (NR1/NR2C) was 8 µM and the remaining activity at 100 µM (NR1/NR2A) was 88%. For the same compound, the IC50 (NR1/NR2B) was 560 µM.
Work on CCN(CC)C(=O)c1ccc(C(=O)Nc2cccc3cc[nH]c23)cc1 [1063-27] yielded a remaining activity at 100 µM (NR1/NR2D) of 82%, a remaining activity at 100 µM (NR1/NR2C) of 93% and an IC50 (NR1/NR2A) of 497 µM. For the same compound, the remaining activity at 100 µM (NR1/NR2B; at 100 μM) was 83%.
In the case of O=C(O)c1ccc(C(=O)Nc2cccc3cc[nH]c23)cc1 [1063-28], the remaining activity at 100 µM (NR1/NR2D) is reported as 89%, the remaining activity at 100 µM (NR1/NR2C) is reported as 98% and the IC50 (NR1/NR2A) is reported as 245 µM. For the same compound, the remaining activity at 100 µM (NR1/NR2B; at 100 μM) was 95%.
Cn1c(=O)oc2ccc(C(=O)Nc3cccc4ccccc34)cc21 [1063-29] was tested, and the remaining activity at 100 µM (NR1/NR2D) was 75%, the remaining activity at 100 µM (NR1/NR2C) was 80% and the remaining activity at 100 µM (NR1/NR2A; at 100 μM) was 92%. It also gave a remaining activity at 100 µM (NR1/NR2B; at 100 μM) of 81%.
CCN(C)C(=O)Oc1ccc(C(=O)Nc2cccc3cc[nH]c23)cc1 [1063-30] showed an IC50 (NR1/NR2D) of 56 µM, an IC50 (NR1/NR2C) of 72 µM and a remaining activity at 100 µM (NR1/NR2A) of 89%. It also gave a remaining activity at 100 µM (NR1/NR2B) of 71%.
O=C(Nc1cccc2ccccc12)c1ccc2oc(=O)[nH]c2c1 [1063-31] gave an IC50 (NR1/NR2D; [1]) of 366 µM, an IC50 (NR1/NR2C; [2]) of 526 µM and an IC50 (NR1/NR2A) of 550 µM. For the same compound, the IC50 (NR1/NR2B; [3]) was 334 µM.
CCN(CC)C(=O)Oc1ccc(C(=O)Nc2cc(C)cc3c2NCC3)cc1 [1063-32] showed an IC50 (NR1/NR2D) of 8 µM, an IC50 (NR1/NR2C) of 20 µM and a remaining activity at 100 µM (NR1/NR2A) of 81%. It also gave an IC50 (NR1/NR2B) of 215 µM.
O=C(O)CCC(=O)N1N=C(c2c(-c3ccccc3)c3cc(Br)ccc3[nH]c2=O)CC1c1ccc(Br)cc1 (stereo not shown) [compound 997] gave an IC50 (NR1/NR2D; [1]) of 3 µM, an IC50 (NR1/NR2C; [2]) of 5 µM and an IC50 (NR1/NR2A) of 78 µM. The IC50 (NR1/NR2B; [3]) was 19 µM.
With O=C(O)CCC(=O)N1N=C(c2c(-c3ccccc3)c3cc(Cl)ccc3[nH]c2=O)CC1c1ccccc1 (stereo not shown) [compound 1149] the IC50 (NR1/NR2D; [1]) was 32 µM.
Compound O=C(O)CCC(=O)N1N=C(c2c(-c3ccccc3)c3cc(Cl)ccc3[nH]c2=O)CC1c1cccc(Br)c1 (stereo not shown) [compound 1176] has an IC50 (NR1/NR2D; [1]) of 4 µM, an IC50 (NR1/NR2C; [2]) of 7 µM and an IC50 (NR1/NR2A) of 24 µM. It also gave an IC50 (NR1/NR2B; [3]) of 30 µM.
O=C(O)CCC(=O)N1N=C(c2c(-c3ccccc3)c3cc(Br)ccc3[nH]c2=O)CC1c1ccccc1F (stereo not shown) [compound 1178] was tested, and the IC50 (NR1/NR2D; [1]) was 21 µM.
In the case of O=C(O)CCC(=O)N1N=C(c2c(-c3ccccc3)c3cc(Br)ccc3[nH]c2=O)CC1c1ccccc1 (stereo not shown) [compound 1183], the IC50 (NR1/NR2D; [1]) is reported as 20 µM.
In the case of Cc1ccc(C2CC(c3c(-c4ccccc4)c4cc(Br)ccc4[nH]c3=O)=NN2C(=O)CCC(=O)O)cc1 (stereo not shown) [compound 1185], the IC50 (NR1/NR2D; [1]) is reported as 9 µM, the IC50 (NR1/NR2C; [2]) is reported as 16 µM and the IC50 (NR1/NR2A) is reported as 140 µM. It also gave an IC50 (NR1/NR2B; [3]) of 59 µM.
With O=C(O)CCC(=O)N1N=C(c2c(-c3ccccc3)c3cc(Br)ccc3[nH]c2=O)CC1c1ccccc1Cl (stereo not shown) [compound 1209] the IC50 (NR1/NR2D; [1]) was 13 µM, the IC50 (NR1/NR2C; [2]) was 22 µM and the IC50 (NR1/NR2A) was 79 µM. For the same compound, the IC50 (NR1/NR2B; [3]) was 35 µM.
With O=c1[nH]c2ccc(Br)cc2c(-c2ccccc2)c1C1=NNC(c2ccc(F)cc2)C1 (stereo not shown) [compound 1248] the IC50 (NR1/NR2D; [1]) was over 300 µM.
In the case of O=C(Nc1cccc2ccccc12)c1ccc(OC(=S)N2CCOCC2)cc1 [compound 1374], the IC50 (NR1/NR2D; [1]) is reported as over 1000 µM.
With CCN(CC)C(=S)Oc1ccc(C(=O)Nc2ccc(F)cc2)cc1 [compound 1379] the IC50 (NR1/NR2D; [1]) was 55 µM, the IC50 (NR1/NR2C; [2]) was 247 µM and the remaining activity at 100 µM (NR1/NR2A; at 100 μM) was 99%. It also gave a remaining activity at 100 µM (NR1/NR2B; at 100 μM) of 88%.
For C=CCN(CC=C)C(=S)Oc1ccc(C(=O)Nc2cccc3ccccc23)cc1 [compound 1380], the IC50 (NR1/NR2D; [1]) was 279 µM.
